Here are results for seven molecules from PubChem BioAssay (NCI).

What all share (assay): inhibition of tumour cell growth, NCI panel, 48 h
Assay [1] concerns U251 CNS.
Assay [2] deals with MALME-3M melanoma.
Assay [3] deals with HCT-116 colon.
In assay [4] the test system is SF-539 CNS.
Assay [5] concerns SK-MEL-2 melanoma.
For assay [6], the system named is UO-31 renal.
The subject of assay [7] is HCC-2998 colon.
The test system of assay [8] is MOLT-4 leukemia.
Assay [9] has as its system NCI-H522 lung.
Assay [10] concerns SF-268 CNS.

“And” between values parts separate entries of the source, which are not always exact repeats. Identical values can stand only once.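 How tested: cells in 96-well plates exposed to compound for 48 hours at five concentrations. At the GI50, growth is halved. TGI is the concentration that stops growth completely.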

For the molecule `COc1ccc(N2Cc3cnc(Nc4ccccc4)nc3N([C@@H]3CC[C@@H](O)C3)C2=O)cc1`, the GI50 was 1.01 µM in assay [1]; 6.89 µM in [2]; 2.84 µM in assay [3]; 0.652 µM in [4]; 5.21 µM in [5]; 0.869 µM in assay [6]. Besides, the GI50 was 18.8 µM in [7], 2.61 µM in [8], 2.93 µM in [9] and 5.05 µM in assay [10]. In addition, the TGI in [1] is more than 25 µM; in [2], more than 25 µM; in [3], more than 25 µM; in [4] it was 5.41 µM; in assay [5], 17.5 µM; in assay [6], more than 16.5 µM. Also, the TGI in assay [7] is more than 25 µM; in assay [8] it was more than 17.8 µM; in [9], more than 18.8 µM; in assay [10] it was more than 25 µM.
For the molecule `Oc1ccc(C(c2ccc(O)cc2)c2ccc(Cl)cn2)cc1`, the GI50 in assay [1] is 42.3 µM; in assay [2] it was 24.6 µM; in assay [3] it was 0.473 µM; in assay [4], 13.7 µM; in [5] it was 4.31 µM; in assay [6], 2.04 µM. Besides, the GI50 was 0.279 µM in assay [7], 23.7 µM in assay [8], 2.63 µM in assay [9] and 25.9 µM in [10]. For the same molecule, the TGI is more than 100 µM in assay [1]; more than 100 µM in [2]; more than 100 µM in assay [3]; more than 100 µM in [4]; 60.3 µM in [5]; more than 100 µM in assay [6]. The TGI is 9.36 µM in assay [7], more than 100 µM in assay [8], 69.8 µM in assay [9] and more than 100 µM in assay [10].
For the molecule `CCCC(=O)Nc1cc(C(=O)N2C[C@@H]3C[C@]34C2=CC(=O)c2[nH]cc(C)c24)n(COC)c1`, the GI50 in assay [1] is 2.39 µM; in assay [3], 2.69 µM; in assay [4] it was 2.15 µM; in [5], 1.98 µM; in assay [6], 26.7 µM; in assay [7], 2.88 µM. The values for the GI50 in [8] and in [10] were 0.523 µM and 3.46 µM, respectively. In addition, the TGI in assay [1] is 20.6 µM and 6.21 µM; in assay [2], 10.9 µM; in [3], 50 µM and 11.8 µM; in assay [4] it was 31.1 µM and 5.28 µM; in assay [5] it was 12.2 µM and 3.46 µM; in assay [6], 17.3 µM and 94.4 µM. In addition, the TGI is 9.71 µM and 10.2 µM in assay [7]; 3.3 µM and 23.2 µM in assay [8]; 3.57 µM and 2.43 µM in assay [9]; 10.6 µM and 33.3 µM in [10].
Consider `CCO/C=C/C(C)C1(C(=O)OCC)CCCCC1=O` (stereo not drawn), for which the TGI in assay [1], in assay [2], in [3], in [4], in [5] and in [6] was more than 100 µM in each case. Besides, the TGI in assay [7], in assay [8], in assay [9] and in assay [10] was more than 100 µM each time.
As to `COc1ccc(-c2nc3sc(-c4ccc(Cl)cc4)cn3n2)cc1`, the GI50 was 1.03 µM in assay [1]; 2.71 µM in assay [2]; 1.21 µM in assay [3]; 1.85 µM in assay [4]; more than 50 µM in assay [5]; 1.19 µM in assay [6]. Further, the GI50 was more than 50 µM in assay [7], 11.3 µM in assay [8], 14.9 µM in [9] and 48 µM in [10]. Moreover, the TGI in [1] is 2.29 µM; in assay [2] it was more than 50 µM; in assay [3] it was 3.48 µM; in [4], 21.5 µM; in assay [5], more than 50 µM; in [6], 4.51 µM. Also, the TGI in [7], in assay [8], in [9] and in assay [10] was more than 50 µM each time.
Take `O=C(Nc1cccc([N+](=O)[O-])c1)C(=O)C(C(=O)c1ccccc1-c1ccccc1)C1OC(=O)c2ccccc21` (stereo not drawn): the TGI came to 27.7 µM in assay [1]; 34.5 µM in assay [2]; 26.6 µM in [3]; 28.4 µM in [4]; 38.3 µM in assay [5]; 51.8 µM in assay [6]. For the same molecule, the TGI in assay [7] worked out at 30.5 µM; in assay [8], 52.4 µM; in [9], 26.2 µM; in assay [10] it was 75.8 µM.
With `COc1ccccc1N=C(N)N/N=C/c1c[nH]c2ccccc12`, the TGI was 24.2 µM in [1]; 8.19 µM in [2]; 19.6 µM in [3]; 26.4 µM in assay [4]; 19.2 µM in [5]; 27.1 µM in assay [6]. Further, the TGI in assay [7] stood at 6.27 µM; in [8] it was 23.4 µM; in assay [9], 19.8 µM; in assay [10], 29.1 µM.
